Patent US8592419B2, “Ceramides and apoptosis-signaling ligand” (MUSC Foundation for Research Development, priority 2004, dated 2013)

Legend:
Type in all cases: cell-based, human
[1] = system: Bax; assay: Immunoblot of Bax; conditions: PC-3 cells, 10 μM
Experimental: (§1) Immunoblot analysis. Cells were seeded in 60mm plates as described above and treated accordingly. Cells were lifted by gently scraping the plates, washed once with ice cold PBS and then lysed in lysis buffer (PBS, 1% Triton X-100, 10% glycerol) containing protease inhibitors pepstatin A (0.5 μg/ml), leupeptin (0.5 μg/ml), aprotinin (5 μg/ml), and PMSF (100 μg/ml) for 10 minutes on ice. Insoluble material was removed by centrifugation at 14,000 rpm for 15 minutes at 4° C. The supernatants were then supplemented with SDS at a final concentration of 2% and stored at −80° C. Protein concentrations were determined using the DC Protein Assay (BioRad Laboratories; Hercules, CA, USA) according to the manufacturer's instructions. 50 μg of protein per sample (unless otherwise indicated) were separated on NuPAGE 4-12% Bis-Tris gels (Invitrogen; Carlsbad, CA, USA) and transferred to nitrocellulose membranes (BioRad). Following transfer, membranes were blocked for 1 hour at room temperature in Tris-buffered saline (TBS) containing 0.1% Tween-20 and 5% nonfat dry milk and incubated overnight at 4° C. with primary antibody at a dilution of 1:2,000(actin), 1:1,000(cytochrome c, COX IV, Bax, Bak, p53, p38, P-p38), 1:500(P-JNK, JNK), 1:250 (AC, p73), or 1:400(LAMP-1, cathepsin B). Overnight incubations were performed in 5% milk in TBS-Tween. […]

[2] = system: Bak; assay: Bak protein level and Bak foci (Western blot, confocal microscopy)
Experimental: Immunoblot analysis. Cells were seeded in 60mm plates as described above and treated accordingly. Cells were lifted by gently scraping the plates, washed once with ice cold PBS and then lysed in lysis buffer (PBS, 1% Triton X-100, 10% glycerol) containing protease inhibitors pepstatin A (0.5 μg/ml), leupeptin (0.5 μg/ml), aprotinin (5 μg/ml), and PMSF (100 μg/ml) for 10 minutes on ice. Insoluble material was removed by centrifugation at 14,000 rpm for 15 minutes at 4° C. The supernatants were then supplemented with SDS at a final concentration of 2% and stored at −80° C. Protein concentrations were determined using the DC Protein Assay (BioRad Laboratories; Hercules, CA, USA) according to the manufacturer's instructions. 50 μg of protein per sample (unless otherwise indicated) were separated on NuPAGE 4-12% Bis-Tris gels (Invitrogen; Carlsbad, CA, USA) and transferred to nitrocellulose membranes (BioRad). Following transfer, membranes were blocked for 1 hour at room temperature in Tris-buffered saline (TBS) containing 0.1% Tween-20 and 5% nonfat dry milk and incubated overnight at 4° C. with primary antibody at a dilution of 1:2,000(actin), 1:1,000(cytochrome c, COX IV, Bax, Bak, p53, p38, P-p38), 1:500(P-JNK, JNK), 1:250 (AC, p73), or 1:400(LAMP-1, cathepsin B). Overnight incubations were performed in 5% milk in TBS-Tween. Following overnight incubation, membranes were washed three times for 10 minutes each in TBS-Tween and incubated for 1 hour at room temperature with secondary antibody in 5% milk TBS-Tween at a dilution 1:5,000 (goat anti-mouse IgG) or 1:50,000 (goat anti-rabbit). Membranes were then washed three times more and incubated for 5 minutes at room temperature with Super Signal HRP substrate (Pierce Biotechnology Inc.; Rockford, IL, USA).
Confocal Microscopy and Immunocytochemistry. DU145 cells were grown in 4.3 cm^2 chamber slides (Nalge Nunc) and transfected with YFPmito alone or with the dominant-negative inhibitor of Drp1(K38A) (64) using FuGENE6 (Roche; Indianapolis, IN) according to the manufacturer's instructions using 1 μg of total DNA per chamber. 24 hr after transfection and 30 min prior to treatment with 15 μM LCL204, cells were exposed to zVAD-fmk (50 μM). The slides were fixed with 4% paraformaldehyde for 20 min then permeabilized with 0.2% Triton X-100 for 15 min, followed by blocking with 4% bovine serum albumin for 45 min at RT. Cells were probed with rabbit polyclonal 2-14 anti-Bak antibody (1:5000; BioChem) for 2 hr then stained with goat anti-rabbit Alexa Fluor 543 antibodies (1:250; Molecular Probes) for 45 min. After washing, cells were imaged using the 63x objective of an LSM 510 Zeiss confocal microscope.

[3] = system: lysosomes of DU145 cells; assay: Lysosomal stability assay (LysoTracker Red)
Experimental: Lysosoinal stability assay. Lysosomal stability was measured using the fluorescent dye LysoTracker Red (LTR). Cells were seeded overnight in 60 mm plates. The next day, medium was removed and replaced with medium containing 200 nM LTR. Cells were loaded with LTR for 30 minutes at 37° C. LTR was removed and cells were washed once with PBS, then medium containing the treatment was added for the indicated time. After treatment, cells were lifted with trypsin, washed once in PBS, and resuspended in 0.5 mL growth medium. LTR fluorescence was measured using FACS analysis (564-606 nm) as above. A decrease in fluorescence intensity corresponded to an increase in lysosomal pH, and a minimum of 10,000 events were scored for each sample.

[4] = system: p38 MAPK; assay: Immunoblot of phosphorylated p38 MAPK; conditions: PPC-1/pcDNA3 vector control cells
Experimental: as §1

[5] = system: Caspases 3 and 7; assay: Caspase 3/7 activity assay; conditions: DU145 cells, 24 hours treatment
Experimental: Caspase 3/7 Activity Assay. Cells were seeded overnight in clear bottom black 96 well plates (Corning; Acton Mass.). The next day, medium was removed and replaced with medium containing vehicle or LCL204 at indicated concentrations. After 24 hours treatment, Caspases 3 and 7 activities were measured using Apo-ONE Homogeneous Caspase 3/7 assay according to the manufacturer's instructions (Promega). Fluorescence was measured using a Fluostar dual fluorescence/absorbance plate reader (BMG Laboratories; Durham, N.C., USA) with 485 nm excitation and 520 nm emission filter set.

[6] = system: p53; assay: Immunoblot of p53; conditions: DU145 cells, 10 μM
Experimental: as §1

[7] = system: cathepsin B; assay: Cathepsin B translocation to cytosol (subcellular fractionation, Western blot, activity assay); conditions: DU145 cells
Experimental: Subcellular fractionation. For cytochrome c immunoblot, cells were seeded and treated as described above. Cells were harvested at 4, 12, or 24 hours after treatment as described previously (62) and proteins (15 μg) were separated by gel electrophoresis and immunoblotted for cytochrome c as above. The protocol for separating cytosolic and heavy membrane fractions is a modified version of that used by Desahger et al. (63). Briefly, cells were seeded and treated in 60 mm plates as described above. Cells were harvested at 0, 0.5, 1, and 2 hours after treatment, washed once in PBS, and gently resuspended in isotonic mitochondrial buffer (210 mM mannitol, 70 mM sucrose, 1 mM EDTA, 10 mM HEPES, pH 7.0) supplemented with protease inhibitors. Cells were then transferred to 1.5 mL microcentrifuge tubes and homogenized using 40 strokes with a polished (fine grain sandpaper) Teflon pestle. Fractions were separated using differential centrifugation as described in the reference. All fractions were stored at −80° C. Cytosolic and heavy membrane fractions (30 and 15 μg, respectively) were separated on NuPAGE gels and immunoblotted as described above. […] Enzyme activity per 50 μg lysate was measured using the fluorogenic cathepsin B substrate 111 (Calbiochem) according to the manufacturer's protocol.

[8] = system: cytochrome c; assay: Cytochrome c release into the cytosol (Western blot); conditions: 5 or 10 μM, DU145 cells
Experimental: as §1, with “(BioRad).” for “(BioRad). Following transfer, membranes were blocked for 1 hour at room temperature in Tris-buffered saline (TBS) containing 0.1% Tween-20 and 5% nonfat dry milk and incubated overnight at 4° C. with primary antibody at a dilution of 1:2,000(actin), 1:1,000(cytochrome c, COX IV, Bax, Bak, p53, p38, P-p38), 1:500(P-JNK, JNK), 1:250 (AC, p73), or 1:400(LAMP-1, cathepsin B). Overnight incubations were performed in 5% milk in TBS-Tween.”
Subcellular fractionation. […] Enzyme activity per 50 μg lysate was measured using the fluorogenic cathepsin B substrate 111 (Calbiochem) according to the manufacturer's protocol.

`CCCCCCCCCCCCCCN[C@H](CO)[C@H](O)c1ccc([N+](=O)[O-])cc1.Cl` [LCL204, (1R,2R) D-threo-2-N-Tetradecylamino-1-(4′-nitrophenyl)-1,3-propandiol hydrochloride] was tested, and the Bax protein levels [1] was “unaffected”, the “Bak protein levels over time” value ([2]; DU145 and PC-3 cells, 10 μM, 12 hours) was “accumulated Bak protein” and the “Bak protein levels versus concentration” value ([2]; DU145 cells, 12-hour treatment) was “concentration-dependent up-regulation”. For the same compound, the “Bak foci on the mitochondria membrane” value ([2]; DU145 cells, 20 hours, confocal microscopy) was “formation of Bak foci was detected”, the “Bak and p73 levels” value ([2]; PPC-1/pcDNA3 cells, 7.5 μM, 5 hours) was “up-regulation of both Bak and p73 levels” and the “onset of the effect on lysosomal pH” value ([3]; DU145 cells, 10 μM) was “as early as five minutes”. For the same compound, the “shift in LTR fluorescence (rise in lysosomal pH)” value ([3]; DU145 cells, 1 hour, LCL204 10 μM, C6-ceramide 30 μM, B13 20 μM) was “induced the shift in LTR fluorescence”, the “lysosome destabilization versus concentration” value ([3]; DU145 cells, one hour) was “destabilized lysosomes in a concentration-dependent manner” and the “earliest destabilization of the lysosomes” value ([3]; prostate cancer cells) was 5 min. The “time by which p38 MAPK phosphorylation was induced” value [4] was ≤ 90 min, the executioner caspase activity [5] was “dose-dependent executioner caspase activity” and the p53 induction [6] was “induced p53 in DU145 cells after four hours”. The “time within which cytosolic cathepsin B activity increased” value ([7]; 10 μM, enzyme activity assay) was ≤ 30 min, the “time within which active cathepsin B was detected in the cytosolic fraction” value ([7]; Western blot) was ≤ 30 min and the “time by which cytochrome c release into the cytosol was detected” value [8] was ≤ 4 h.
